pIC50: −log10 of the molar value.
Legend:
NCI-H522 = assay: Growth inhibition of human NCI-H522 cells assessed as cell growth at 10 uM incubated for 48 hrs by sulforhodamine B assay relative to control; assay type: functional; details: NCI-H522, 48 h, read-out: Activity
HCT-116 = assay: Growth inhibition of human HCT116 cells incubated for 48 hrs by sulforhodamine B assay; assay type: functional, cell-based; details: HCT-116, 48 h
U-251 [1] = assay: Growth inhibition of human U251 cells incubated for 48 hrs by sulforhodamine B assay; assay type: functional, cell-based; details: U-251, 48 h
MDA-MB-435 = assay: Growth inhibition of human MDA-MB-435 cells incubated for 48 hrs by sulforhodamine B assay; assay type: functional, cell-based; details: MDA-MB-435, 48 h
UACC-257 = assay: Growth inhibition of human UACC257 cells incubated for 48 hrs by sulforhodamine B assay; assay type: functional, cell-based; details: UACC-257, 48 h
T47D = assay: Growth inhibition of human T47D cells incubated for 48 hrs by sulforhodamine B assay; assay type: functional, cell-based
K562 = assay: Growth inhibition of human K562 cells assessed as cell growth at 0.01 uM incubated for 48 hrs by sulforhodamine B assay relative to control; assay type: functional; details: K562, 48 h, read-out: Activity
RPMI-8226 [2] = assay: Growth inhibition of human RPMI8226 cells assessed as cell growth at 0.01 uM incubated for 48 hrs by sulforhodamine B assay relative to control; assay type: functional; details: RPMI-8226, 48 h, read-out: Activity
HT-29 [3] = assay: Growth inhibition of human HT-29 cells assessed as cell growth at 0.01 uM incubated for 48 hrs by sulforhodamine B assay relative to control; assay type: functional; details: HT-29, 48 h, read-out: Activity
KM12 = assay: Growth inhibition of human KM12 cells assessed as cell growth at 0.01 uM incubated for 48 hrs by sulforhodamine B assay relative to control; assay type: functional; details: KM12, 48 h, read-out: Activity
OVCAR-5 = assay: Growth inhibition of human OVCAR5 cells assessed as cell growth at 0.01 uM incubated for 48 hrs by sulforhodamine B assay relative to control; assay type: functional; details: OVCAR-5, 48 h, read-out: Activity
NCI/ADR-RES = assay: Growth inhibition of human NCI/ADR-RES cells assessed as cell growth at 0.01 uM incubated for 48 hrs by sulforhodamine B assay relative to control; assay type: functional; details: read-out: Activity
RPMI-8226 [4] = assay: Growth inhibition of human RPMI8226 cells assessed as cell growth at 0.1 uM incubated for 48 hrs by sulforhodamine B assay relative to control; assay type: functional; details: RPMI-8226, 48 h, read-out: Activity
HT-29 [5] = assay: Growth inhibition of human HT-29 cells assessed as cell growth at 0.1 uM incubated for 48 hrs by sulforhodamine B assay relative to control; assay type: functional; details: HT-29, 48 h, read-out: Activity
OVCAR-3 [6] = assay: Growth inhibition of human OVCAR3 cells assessed as cell growth at 0.1 uM incubated for 48 hrs by sulforhodamine B assay relative to control; assay type: functional; details: OVCAR-3, 48 h, read-out: Activity
COLO 205 = assay: Growth inhibition of human COLO205 cells assessed as cell growth at 1 uM incubated for 48 hrs by sulforhodamine B assay relative to control; assay type: functional; details: COLO 205, 48 h, read-out: Activity
LOX IMVI = assay: Growth inhibition of human LOXIMVI cells assessed as cell growth at 1 uM incubated for 48 hrs by sulforhodamine B assay relative to control; assay type: functional; details: read-out: Activity
UACC-62 = assay: Growth inhibition of human UACC62 cells assessed as cell growth at 1 uM incubated for 48 hrs by sulforhodamine B assay relative to control; assay type: functional; details: UACC-62, 48 h, read-out: Activity
SK-OV-3 = assay: Growth inhibition of human SKOV3 cells assessed as cell growth at 1 uM incubated for 48 hrs by sulforhodamine B assay relative to control; assay type: functional; details: SK-OV-3, 48 h, read-out: Activity
786-0 = assay: Growth inhibition of human 786-0 cells assessed as cell growth at 1 uM incubated for 48 hrs by sulforhodamine B assay relative to control; assay type: functional; details: 786-0, 48 h, read-out: Activity
RXF 393 = assay: Growth inhibition of human RXF393 cells assessed as cell growth at 1 uM incubated for 48 hrs by sulforhodamine B assay relative to control; assay type: functional; details: RXF 393, 48 h, read-out: Activity
Hs-578T = assay: Growth inhibition of human Hs578T cells assessed as cell growth at 1 uM incubated for 48 hrs by sulforhodamine B assay relative to control; assay type: functional; details: read-out: Activity
MDA-MB-468 = assay: Growth inhibition of human MDA-MB-468 cells assessed as cell growth at 1 uM incubated for 48 hrs by sulforhodamine B assay relative to control; assay type: functional; details: MDA-MB-468, 48 h, read-out: Activity
CCRF-CEM = assay: Growth inhibition of human CCRF-CEM cells assessed as cell growth at 100 uM incubated for 48 hrs by sulforhodamine B assay relative to control; assay type: functional; details: read-out: Activity
NCI-H226 = assay: Growth inhibition of human NCI-H226 cells assessed as cell growth at 100 uM incubated for 48 hrs by sulforhodamine B assay relative to control; assay type: functional; details: NCI-H226, 48 h, read-out: Activity
HCC 2998 = assay: Growth inhibition of human HCC2998 cells assessed as cell growth at 100 uM incubated for 48 hrs by sulforhodamine B assay relative to control; assay type: functional; details: HCC 2998, 48 h, read-out: Activity
U-251 [7] = assay: Growth inhibition of human U251 cells assessed as cell growth at 100 uM incubated for 48 hrs by sulforhodamine B assay relative to control; assay type: functional; details: U-251, 48 h, read-out: Activity
IGROV-1 = assay: Growth inhibition of human IGROV1 cells assessed as cell growth at 100 uM incubated for 48 hrs by sulforhodamine B assay relative to control; assay type: functional; details: IGROV-1, 48 h, read-out: Activity
OVCAR-3 [8] = assay: Growth inhibition of human OVCAR3 cells assessed as cell growth at 100 uM incubated for 48 hrs by sulforhodamine B assay relative to control; assay type: functional; details: OVCAR-3, 48 h, read-out: Activity
BT-549 = assay: Growth inhibition of human BT549 cells assessed as cell growth at 100 uM incubated for 48 hrs by sulforhodamine B assay relative to control; assay type: functional; details: BT-549, 48 h, read-out: Activity
[9] = read-out: LC50 (the source's name)
[10] = read-out: pLC50 (the source's name) (converted)

## O=C(Nc1cccc(-n2cc(-c3ccncc3)c(-c3cc(O)cc(Cl)c3)n2)c1)c1cc(C(F)(F)F)cc(C(F)(F)F)c1
NCI-H522
  growth at 10 µM: 17.8%
HCT-116
  pIC50: 5.49
HCT-116; read-out: GI50
  GI50: 3.23 µM
HCT-116; [9]
  CC50: > 100 µM
HCT-116; read-out: TGI
  TGI: > 100 µM
HCT-116; read-out: pGI50 (converted)
  GI50: 3.24 µM
HCT-116; [10]
  CC50: > 100 µM
HCT-116; read-out: pTGI (converted)
  TGI: > 100 µM
U-251 [1]
  pIC50: 5.49
U-251 [1]; read-out: GI50
  GI50: 3.23 µM
U-251 [1]; [9]
  CC50: > 100 µM
U-251 [1]; read-out: TGI
  TGI: 24.4 µM
U-251 [1]; read-out: pGI50 (converted)
  GI50: 3.24 µM
U-251 [1]; [10]
  CC50: > 100 µM
U-251 [1]; read-out: pTGI (converted)
  TGI: 30.9 µM
MDA-MB-435; read-out: GI50
  GI50: 3.18 µM
MDA-MB-435; read-out: LC50
  LC50: > 100 µM
MDA-MB-435; read-out: TGI
  TGI: > 100 µM
MDA-MB-435; read-out: pGI50 (converted)
  GI50: 3.16 µM
MDA-MB-435; read-out: pLC50 (converted)
  LC50: > 100 µM
MDA-MB-435; read-out: pTGI (converted)
  TGI: > 100 µM
UACC-257; read-out: GI50
  GI50: 4.23 µM
UACC-257; [9]
  CC50: > 100 µM
UACC-257; read-out: TGI
  TGI: 51.2 µM
UACC-257; read-out: pGI50 (converted)
  GI50: 4.27 µM
UACC-257; [10]
  CC50: > 100 µM
UACC-257; read-out: pTGI (converted)
  TGI: 51.3 µM
T47D; read-out: GI50
  GI50: 2.99 µM
T47D; [9]
  CC50: > 100 µM
T47D; read-out: TGI
  TGI: 94.6 µM
T47D; read-out: pGI50 (converted)
  GI50: 3.02 µM
T47D; [10]
  CC50: > 100 µM
T47D; read-out: pTGI (converted)
  TGI: 95.5 µM
K562
  growth at 0.01 µM: 99%
RPMI-8226 [2]
  growth at 0.01 µM: 105%
HT-29 [3]
  growth at 0.01 µM: 96%
KM12
  growth at 0.01 µM: 96%
OVCAR-5
  growth at 0.01 µM: 92%
NCI/ADR-RES
  growth at 0.01 µM: 101%
RPMI-8226 [4]
  growth at 0.1 µM: 105%
HT-29 [5]
  growth at 0.1 µM: 91%
OVCAR-3 [6]
  growth at 0.1 µM: 102%
COLO 205
  growth at 1 µM: 97%
LOX IMVI
  growth at 1 µM: 97%
UACC-62
  growth at 1 µM: 92%
SK-OV-3
  growth at 1 µM: 100%
786-0
  growth at 1 µM: 56%
RXF 393
  growth at 1 µM: 78%
Hs-578T
  growth at 1 µM: 92%
MDA-MB-468
  growth at 1 µM: 52%
CCRF-CEM
  growth at 100 µM: 1%
NCI-H226
  growth at 100 µM: 19%
HCC 2998
  growth at 100 µM: -34%
U-251 [7]
  growth at 100 µM: -28%
IGROV-1
  growth at 100 µM: 22%
OVCAR-3 [8]
  growth at 100 µM: -10%
BT-549
  growth at 100 µM: -12%

Reference: ChEMBL document CHEMBL4308841, “Synthesis, in vitro antiproliferative activity, and kinase inhibitory effects of pyrazole-containing diarylureas and diarylamides” (Eur J Med Chem, 2018)
